Test results from US20240252581A1, “COMPOSITIONS AND METHODS FOR TREATING RESPIRATORY DISTRESS” (S.I.S. SHULOV INNOVATIVE SCIENCE LTD., priority 2021, published 2024).
Square brackets hold non-standard residues; d marks the D form. Peptide text beside a SMILES is read from it. * marks the point of attachment. pGlu = O=C1CC[C@@H](C(=O)O)N1; Octanoyl = CCCCCCCC(=O)*

Assays:
[1] = determined daily during the study
Procedure: The effect of ZEP3Na administered intratracheally in a mice model of acute respiratory distress syndrome was evaluated. BALB/c mice were anaesthetized and orally intubated with a sterile plastic catheter and challenged with intratracheal instillation of 0.2 mg or 0.8 mg of LPS dissolved in 50 μL of PBS. Naïve mice (without LPS instillation) were injected with the same volume of saline to serve as controls. Six hours following LPS instillation, mice were administered intratracheally with ZEP3Na at two doses, namely 0.1 and 0.4 mg. The study was terminated 72 hours after LPS challenge to collect tissues for analysis.
Animal body weights were determined daily during the study.

ACE2 mRNA = assay: Relative ACE2 mRNA expression in lung tissue (real-time quantitative PCR); assay type: in vivo, mouse; conditions: in relation to rplO gene
Procedure: In order to test the efficacy of ZEP3 sodium on lung inflammation, the lipopolysaccharide (LPS)-induced acute lung injury model was used. In particular, LPS was administered intratracheally at doses of 10 or 40 mg/kg body weight (BW) corresponding to 0.2 or 0.8 mg/mouse, respectively.
Relative ACE2 mRNA expression in lung tissue was determined as follows: mRNA was extracted from lung tissues, real-time quantitative PCR was employed, and expression of ACE2 gene in relation to rplO gene was measured.

## CCCCCCCC(=O)NCCCC[C@H](NC(=O)[C@H](Cc1c[nH]c2ccccc12)NC(=O)[C@H](CC(N)=O)NC(=O)[C@@H]1CCC(=O)N1)C(=O)O [ZEP3Na, pGlu-Asn-Trp-Lys(Octanoyl)-ONa] ([pGlu]NWK(Octanoyl)-OH)
[1]
  body weight: No major changes
ACE2 mRNA; LPS 0.2 mg + ZEP3 Na 0.1 mg
  Relative ACE2 mRNA expression (Mean ± SEM): 0.672 ± 0.145
ACE2 mRNA; LPS 0.2 mg + ZEP3 Na 0.4 mg
  Relative ACE2 mRNA expression (Mean ± SEM): 1.239 ± 0.132
ACE2 mRNA; LPS 0.8 mg + ZEP3 Na 0.1 mg
  Relative ACE2 mRNA expression (Mean ± SEM): 0.223 ± 0.031
ACE2 mRNA; LPS 0.8 mg + ZEP3 Na 0.1 mg, listed as ZEP3 sodium
  Relative ACE2 mRNA expression (Mean ± SEM): 0.22
ACE2 mRNA; LPS 0.8 mg + ZEP3 Na 0.4 mg
  Relative ACE2 mRNA expression (Mean ± SEM): 0.805 ± 0.251
ACE2 mRNA; ZEP3 Na 0.1 mg, no LPS
  Relative ACE2 mRNA expression (Mean ± SEM): 1.750 ± 0.320
ACE2 mRNA; ZEP3 Na 0.4 mg, no LPS
  Relative ACE2 mRNA expression (Mean ± SEM): 0.303 ± 0.025
